Patent publication US10202390B2, “Heteroaryl substituted aminopyridine compounds” (BRISTOL-MYERS SQUIBB COMPANY, priority 2015, dated 2019)

What was measured:
IRAK4 = IRAK4 (Homo sapiens (Human), UniProt Q9NWZ3); experiment: IRAK4 Inhibition Assay; type: biochemical; details: ATP 500 μM; IRAK4 0.6 nM; 60 min room temperature
Description: The assays were performed in U-bottom 384-well plates. The final assay volume was 30 μL prepared from 15 μL additions of enzyme and substrates (fluoresceinated peptide and ATP) and test compounds in assay buffer (20 mM HEPES pH 7.2, 10 mM MgCl2, 0.015% Brij 35 and 4 mM DTT). The reaction was initiated by the combination of IRAK4 with substrates and test compounds. The reaction mixture was incubated at room temperature for 60 min. and terminated by adding 45 μL of 35 mM EDTA to each sample. The reaction mixture was analyzed on the Caliper LABCHIP® 3000 (Caliper, Hopkinton, Mass.) by electrophoretic separation of the fluorescent substrate and phosphorylated product. Inhibition data were calculated by comparison to no enzyme control reactions for 100% inhibition and vehicle-only reactions for 0% inhibition. The final concentrations of reagents in the assays are ATP, 500 μM; FL-IPTSPITTTYFFFKKK peptide 1.5 μM; IRAK4, 0.6 nM; and DMSO, 1.6%.

Human whole blood = experiment: IRAK4 Whole Blood Assay (TLR2 agonist lipoteichoic acid induced IL-6); type: cell-based; details: 10 μg/mL lipoteichoic acid (TLR2 agonist), 5 hours, IL-6 levels
Description: Human whole blood containing the anti-coagulant ACD-A was plated in 384-well plate (25 μL/well) and incubated with compounds for 60 minutes at 37° C. in a 5% CO2 incubator. The blood was stimulated with a TLR2 agonist, 10 μg/mL final concentration of lipoteichoic acid (Invivogen, San Diego, Calif.) in 25 μL RPMI (Gibco) for 5 hours in a 5% CO2 incubator. At the end of the incubation, plates were centrifuged at 2300 rpm for 5 minutes. Supernatants were harvested and analyzed for IL-6 levels by Flow Cytometry beads assay (BD Biosciences, San Jose, Calif.).

[1] = Caco-2 Permeability Assay; type: in vitro ADME; details: human, test compound 3 μM, 2 hours at 37° C., direction not given
Description: Caco-2 Permeability Assay Protocol
Thirteen to 27 days prior to assay, Caco-2 cells were seeded onto collagen-coated polycarbonate filter membranes in 24-well transwell plates at a density of 1.45×10^5 cells/cm^2, approximately 4.8×10^4 cells per well. The cells were grown in a culture medium consisting of DMEM supplemented with 10% fetal bovine serum, 10 mM HEPES, 1% nonessential amino acids, 2 mM L-glutamine, 100 U/mL penicillin-G, and 100 μg/mL streptomycin. The culture medium was replaced every 3 days and the cells were maintained at 37° C. in a 95% relative humidity and 5% CO2 atmosphere. The cells were evaluated for tight junction formation just prior to assay. The test compound was solubilized to 10 mM in 100% DMSO and diluted to 3 μM in assay buffer. Permeability studies were initiated by adding 200 μL assay buffer plus/minus compound to the apical transwell compartment and 600 μL assay buffer plus/minus compound to the basolateral compartment of the 24-well transwell low-binding cluster plate. For apical-to-basolateral (A to B) permeability (absorptive direction), buffer containing compound was placed in the apical compartment (donorwells), while buffer alone was placed in the corresponding basolateral compartments (receiverwells). For basolateral-to-apical (B to A) permeability (secretive direction), buffer containing compound was placed in the basolateral compartment (donor wells), while buffer alone was placed in the corresponding apical compartments (receiver wells). Transwells were then incubated for 2 hours at 37° C. in a 95% relative humidity and 5% CO2 atmosphere with gentle agitation. Following incubation, 100 μL was removed from each apical and basolateral compartment and transferred to 96-well low binding plates that had been previously loaded with 100 μL/well of acetonitrile containing 250 nM propranolol, 250 nM diclofenac, and 500 nM tolbutamide as internal standards. The samples were subsequently analyzed by LC-MS/MS to determine concentrations of compound.

IRAK4, sequence (Q9NWZ3 whole entry): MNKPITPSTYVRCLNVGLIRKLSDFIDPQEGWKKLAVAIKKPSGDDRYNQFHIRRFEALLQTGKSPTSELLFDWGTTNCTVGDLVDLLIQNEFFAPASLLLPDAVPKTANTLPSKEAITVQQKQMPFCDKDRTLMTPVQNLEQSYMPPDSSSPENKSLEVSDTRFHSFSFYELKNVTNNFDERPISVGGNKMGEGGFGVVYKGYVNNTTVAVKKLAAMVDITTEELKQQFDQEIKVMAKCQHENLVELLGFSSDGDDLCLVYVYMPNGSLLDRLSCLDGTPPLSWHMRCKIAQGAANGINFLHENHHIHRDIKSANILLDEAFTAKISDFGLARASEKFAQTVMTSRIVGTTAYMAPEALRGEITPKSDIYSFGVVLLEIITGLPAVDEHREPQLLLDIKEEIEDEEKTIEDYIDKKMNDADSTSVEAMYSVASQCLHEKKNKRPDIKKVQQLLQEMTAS

Row | SMILES | IC50 (IRAK4) [µM] | EC50 (Human whole blood) [µM] | Papp at 2 h, 3 μM [1] [×10⁻⁶ cm/s]
1 | CC(C)Nc1cc(-c2cnc3cc(Cl)cnn23)ncc1-c1cnn(CC(F)(F)F)c1 [Example 7, 2-(7-chloroimidazo[1,2-b]pyridazin-3-yl)-N-isopropyl-5-(1-(2,2,2-trifluoroethyl)-1H-pyrazol-4-yl)pyridin-4-amine] | 0.053 |  | 
2 | CC(C)Nc1cc(-c2cnn3cc(Cl)cnc23)ncc1-n1cc(CCC(C)(C)O)nn1 [Example 13, 4-(1-(6-(6-chloropyrazolo[1,5-a]pyrimidin-3-yl)-4-(isopropylamino)pyridin-3-yl)-H-1,2,3-triazol-4-yl)-2-methylbutan-2-ol] | 0.003 | 0.95 | 
3 | CC(=O)N1CC(n2cc(-c3cnc(-c4cnc5cc(C#N)cnn45)cc3NC(C)C)nn2)C1 [Example 17, 3-(5-(1-(1-acetylazetidin-3-yl)-1H-1,2,3-triazol-4-yl)-4-(isopropylamino)pyridin-2-yl)imidazo[1,2-b]pyridazine-7-carbonitrile] | 0.002 |  | 
4 | CC(C)Nc1cc(-c2cnc3cc(C#N)cnn23)ncc1-c1cnn(C2CCOCC2)c1 [Example 3, 3-(4-(isopropylamino)-5-(1-(tetrahydro-2H-pyran-4-yl)-1H-pyrazol-4-yl)pyridin-2-yl)imidazo[1,2-b]pyridazine-7-carbonitrile] | 0.014 | 1.03 | 
5 | CC(C)Nc1cc(-c2cnc3cc(C#N)cnn23)ncc1-c1cnn(CC(F)(F)F)c1 [Example 8, 3-(4-(isopropylamino)-5-(1-(2,2,2-trifluoroethyl)-1H-pyrazol-4-yl)pyridin-2-yl)imidazo[1,2-b]pyridazine-7-carbonitrile] | 0.043 |  | 
6 | CC(C)(O)CCc1cn(-c2cnc(-c3cnn4cc(Cl)cnc34)cc2NC2COC2)nn1 [Example 14, 4-(1-(6-(6-chloropyrazolo[1,5-a]pyrimidin-3-yl)-4-(oxetan-3-ylamino)pyridin-3-yl)-1H-1,2,3-triazol-4-yl)-2-methylbutan-2-ol] | 0.009 | 0.82 | 
7 | CCCc1cn(-c2cnc(-c3cnn4cc(Cl)cnc34)cc2NC(C)C)nn1 [Example 11, 2-(6-chloropyrazolo[1,5-a]pyrimidin-3-yl)-N-isopropyl-5-(4-propyl-1H-1,2,3-triazol-1-yl)pyridin-4-amine] | 0.008 |  | 17.9
8 | CC(C)Nc1cc(-c2cnc3cc(Cl)cnn23)ncc1-c1cnn(CC(C)(C)O)c1 [Example 4, 1-(4-(6-(7-chloroimidazo[1,2-b]pyridazin-3-yl)-4-(isopropylamino)pyridin-3-yl)-1H-pyrazol-1-yl)-2-methylpropan-2-ol] | 0.396 |  | 
9 | CCCn1cc(-c2cnc(-c3cnc4cc(C#N)cnn34)cc2Nc2cnn(CC(F)F)c2)cn1 [Example 10, 3-(4-((1-(2,2-difluoroethyl)-1H-pyrazol-4-yl)amino)-5-(1-propyl-1H-pyrazol-4-yl)pyridin-2-yl)imidazo[1,2-b]pyridazine-7-carbonitrile] | 0.02 |  | 
10 | CCCc1cn(-c2cnc(-c3cnn4cc(C#N)cnc34)cc2NC(C)C)nn1 [Example 12, 3-(4-(isopropylamino)-5-(4-propyl-1H-1,2,3-triazol-1-yl)pyridin-2-yl)pyrazolo[1,5-a]pyrimidine-6-carbonitrile] | 0.009 |  | 34.7
11 | CC(C)Nc1cc(-c2cnc3cc(C#N)cnn23)ncc1-c1cn(C2CCOCC2)nn1 [Example 16, 3-(4-(isopropylamino)-5-(1-(tetrahydro-2H-pyran-4-yl)-1H-1,2,3-triazol-4-yl)pyridin-2-yl)imidazo[1,2-b]pyridazine-7-carbonitrile] | 0.002 |  | 
12 | CC(C)Nc1cc(-c2cnn3cc(C#N)cnc23)ncc1-n1cc(C(C)(C)O)cn1 [Example 1, 3-(5-(4-(2-hydroxypropan-2-yl)-1H-pyrazol-1-yl)-4-(isopropylamino)pyridin-2-yl) pyrazolo[1,5-a]pyrimidine-6-carbonitrile] | 0.578 |  | 
13 | CCCn1cc(-c2cnc(-c3cnc4cc(C#N)cnn34)cc2NC(C)C)cn1 [Example 6, 3-(4-(isopropylamino)-5-(1-propyl-1H-pyrazol-4-yl)pyridin-2-yl)imidazo[1,2-b]pyridazine-7-carbonitrile] | 0.018 | 4.41 | 
14 | CC(C)Nc1cc(-c2cnc3cc(C#N)cnn23)ncc1-c1cnn(CC(C)(C)O)c1 [Example 5, 3-(5-(1-(2-hydroxy-2-methylpropyl)-1H-pyrazol-4-yl)-4-(isopropylamino)pyridin-2-yl)imidazo[1,2-b]pyridazine-7-carbonitrile] | 0.174 |  | 
15 | CCCn1cc(-c2cnc(-c3cnc4cc(Cl)cnn34)cc2Nc2cnn(CC(F)F)c2)cn1 [Example 9, 2-(7-chloroimidazo[1,2-b]pyridazin-3-yl)-N-(1-(2,2-difluoroethyl)-1H-pyrazol-4-yl)-5-(1-propyl-1H-pyrazol-4-yl)pyridin-4-amine] | 0.029 |  | 

Now from value to compound:

Row | IC50 (IRAK4) [µM] | EC50 (Human whole blood) [µM] | Papp at 2 h, 3 μM [1] [×10⁻⁶ cm/s] | SMILES
16 | 0.012 |  |  | CCCn1cc(-c2cnc(-c3cnc4cc(Cl)cnn34)cc2NC(C)C)nn1 [Example 20, 2-(7-chloroimidazo[1,2-b]pyridazin-3-yl)-N-isopropyl-5-(1-propyl-1H-1,2,3-triazol-4-yl)pyridin-4-amine]
17 | 0.014 | 2.87 |  | COC(=O)N1CCC(n2cc(-c3cnc(-c4cnc5cc(Cl)cnn45)cc3NC3CC3)nn2)[C@](C)(O)C1 (stereo partly drawn) [Example 21, (3R)-methyl 4-(4-(6-(7-chloroimidazo[1,2-b]pyridazin-3-yl)-4-(cyclopropylamino)pyridin-3-yl)-1H-1,2,3-triazol-1-yl)-3-hydroxy-3-methylpiperidine-1-carboxylate]
18 | 0.005 | 0.59 |  | CC(C)Nc1cc(-c2cnc3cc(C#N)cnn23)ncc1-c1cc(C2CCOCC2)[nH]n1 [Example 28, 3-(4-(isopropylamino)-5-(5-(tetrahydro-2H-pyran-4-yl)-1H-pyrazol-3-yl)pyridin-2-yl)imidazo[1,2-b]pyridazine-7-carbonitrile]
19 |  | 0.16 |  | CC(C)(O)CCc1cn(-c2cnc(-c3cnn4cc(C#N)cnc34)cc2NC2COC2)nn1 [Example 26, 3-(5-(4-(3-hydroxy-3-methylbutyl)-1H-1,2,3-triazol-1-yl)-4-(oxetan-3-ylamino)pyridin-2-yl)pyrazolo[1,5-a]pyrimidine-6-carbonitrile]
20 | 0.002 | 0.51 |  | CC(C)(O)CCc1cc(-c2cnc(-c3cnn4cc(C#N)cnc34)cc2NC2CCOCC2)n[nH]1 [Example 29, 3-(5-(5-(3-hydroxy-3-methylbutyl)-1H-pyrazol-3-yl)-4-((tetrahydro-2H-pyran-4-yl)amino)pyridin-2-yl)pyrazolo[1,5-a]pyrimidine-6-carbonitrile]
21 | 0.014 | 0.78 |  | CC(C)(O)CCc1cn(-c2cnc(-c3cnn4cc(C#N)cnc34)cc2NC2CC(F)(F)C2)nn1 [Example 24, 3-(4-((3,3-difluorocyclobutyl)amino)-5-(4-(3-hydroxy-3-methylbutyl)-1H-1,2,3-triazol-1-yl)pyridin-2-yl)pyrazolo[1,5-a]pyrimidine-6-carbonitrile]
22 | 0.003 | 2.32 |  | CCCn1cc(-c2cnc(-c3cnc4cc(Cl)cnn34)cc2NC2CC2)nn1 [Example 19, 2-(7-chloroimidazo[1,2-b]pyridazin-3-yl)-N-cyclopropyl-5-(1-propyl-1H-1,2,3-triazol-4-yl)pyridin-4-amine]
23 | 0.009 | 0.99 |  | CC(C)(O)CCc1cn(-c2cnc(-c3cnn4cc(Cl)cnc34)cc2NC2CCOCC2)nn1 [Example 23, 4-(1-(6-(6-chloropyrazolo[1,5-a]pyrimidin-3-yl)-4-((tetrahydro-2H-pyran-4-yl)amino)pyridin-3-yl)-1H-1,2,3-triazol-4-yl)-2-methylbutan-2-ol]
